Data from ChEMBL document CHEMBL1201862, “PubChem BioAssay data set” (2004).
Activity calls are given as the source filed them.

Tests used:
[1] = microbe, parasite or virus in culture; format: functional; conditions: Mycobacterium tuberculosis
[2] = molecular target: T1, Sphingosine 1-phosphate receptor 4 (Homo sapiens, UniProt O95977); assay: Fluorescence dose response cell-based high throughput screening assay for antagonists of the Sphingosine 1-Phosphate Receptor 4 (S1P4). [Related pubchem assays: 1524 (Confirmation in triplicates.), 1510 (Primary screen.)]; format: functional
T1 sequence (O95977 whole entry): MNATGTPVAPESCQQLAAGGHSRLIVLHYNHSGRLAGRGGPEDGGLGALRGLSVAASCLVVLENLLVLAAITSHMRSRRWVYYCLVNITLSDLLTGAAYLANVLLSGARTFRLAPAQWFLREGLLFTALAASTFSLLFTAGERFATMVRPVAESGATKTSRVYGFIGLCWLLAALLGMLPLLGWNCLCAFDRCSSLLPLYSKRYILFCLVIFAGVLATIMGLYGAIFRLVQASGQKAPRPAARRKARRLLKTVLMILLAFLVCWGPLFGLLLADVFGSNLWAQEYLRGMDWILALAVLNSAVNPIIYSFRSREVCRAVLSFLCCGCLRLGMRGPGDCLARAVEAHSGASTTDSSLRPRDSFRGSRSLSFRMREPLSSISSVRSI

[3] = molecular target: Sphingosine 1-phosphate receptor 1 (Homo sapiens, UniProt P21453); format: functional;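 further: Tango beta-arrestin reporter U2OS cells stimulated with S1P near its EC80; inhibitor potency meaning antagonism of receptor activation by the natural agonist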
Sequence of Sphingosine 1-phosphate receptor 1 (P21453 whole entry, the tested form may be a part): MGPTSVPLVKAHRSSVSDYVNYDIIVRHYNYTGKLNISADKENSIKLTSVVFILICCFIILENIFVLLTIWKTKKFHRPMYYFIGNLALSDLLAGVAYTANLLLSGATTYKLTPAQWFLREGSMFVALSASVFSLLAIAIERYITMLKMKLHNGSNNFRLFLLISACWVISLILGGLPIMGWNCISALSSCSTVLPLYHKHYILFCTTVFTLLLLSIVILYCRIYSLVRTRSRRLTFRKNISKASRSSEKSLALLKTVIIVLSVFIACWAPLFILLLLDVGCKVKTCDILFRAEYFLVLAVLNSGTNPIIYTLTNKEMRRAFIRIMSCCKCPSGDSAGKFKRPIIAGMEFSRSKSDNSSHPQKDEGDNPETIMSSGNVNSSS

[4] = molecular target: 1-acylglycerol-3-phosphate O-acyltransferase ABHD5/Perilipin-5 (Homo sapiens, UniProt Q00G26+Q8WTS1); assay: Luminescence-based biochemical high throughput dose response assay for inhibitors of the interaction of the lipase co-activator protein, abhydrolase domain containing 5 (ABHD5) with perilipin-5 (MLDP; PLIN5) (2K validation set). [Related pubchem assays (depositor defined):AID493035, AID493241]
Sequence of 1-acylglycerol-3-phosphate O-acyltransferase ABHD5/Perilipin-5 (Q00G26 whole entry, the tested form may be a part): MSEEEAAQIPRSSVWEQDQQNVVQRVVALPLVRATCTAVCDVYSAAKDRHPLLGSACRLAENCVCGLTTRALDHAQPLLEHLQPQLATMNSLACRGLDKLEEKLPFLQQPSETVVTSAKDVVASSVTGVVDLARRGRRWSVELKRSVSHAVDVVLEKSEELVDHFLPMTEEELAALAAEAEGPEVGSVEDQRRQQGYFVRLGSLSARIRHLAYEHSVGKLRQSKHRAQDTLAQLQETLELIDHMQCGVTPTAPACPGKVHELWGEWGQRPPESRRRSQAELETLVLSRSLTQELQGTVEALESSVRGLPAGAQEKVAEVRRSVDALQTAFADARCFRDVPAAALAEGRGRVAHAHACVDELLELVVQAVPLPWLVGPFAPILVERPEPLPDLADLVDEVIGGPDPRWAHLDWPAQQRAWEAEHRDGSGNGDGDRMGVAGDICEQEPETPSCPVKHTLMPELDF
Sequence of 1-acylglycerol-3-phosphate O-acyltransferase ABHD5/Perilipin-5 (Q8WTS1 whole entry, the tested form may be a part): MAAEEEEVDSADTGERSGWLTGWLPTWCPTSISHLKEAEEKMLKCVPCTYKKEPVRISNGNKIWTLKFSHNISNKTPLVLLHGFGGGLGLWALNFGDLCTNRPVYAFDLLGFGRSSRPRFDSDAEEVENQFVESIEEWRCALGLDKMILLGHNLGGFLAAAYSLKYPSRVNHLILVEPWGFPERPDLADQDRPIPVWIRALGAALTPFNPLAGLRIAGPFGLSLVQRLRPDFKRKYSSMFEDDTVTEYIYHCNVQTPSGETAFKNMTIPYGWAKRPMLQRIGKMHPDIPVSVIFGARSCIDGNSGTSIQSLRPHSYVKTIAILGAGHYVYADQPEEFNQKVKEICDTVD

Phospholipase A2 = Phospholipase A2 (Homo sapiens, UniProt P04054); format: functional;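 further: confirmatory dose-response counterscreen on phospholipase A2, testing hits that came from an ultra-high-throughput screen for ATG4B inhibitors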
Sequence of Phospholipase A2 (P04054 whole entry): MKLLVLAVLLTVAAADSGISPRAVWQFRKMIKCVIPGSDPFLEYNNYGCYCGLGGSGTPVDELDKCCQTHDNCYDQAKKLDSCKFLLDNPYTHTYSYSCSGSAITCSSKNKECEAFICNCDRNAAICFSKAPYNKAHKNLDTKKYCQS

[5] = Luminescence Cell-Based Dose Response HTS to Identify Inhibitors of 5'UTR Stem-Loop Driven Prion Protein mRNA Translation in H4 Neuroglioblastoma Cells. [Related pubchem assays: 1827 (Project Summary), 1813 (Primary HTS)]; format: functional
Beta-galactosidase = Beta-galactosidase (Escherichia coli, UniProt Q8VNN2); format: functional
Sequence of Beta-galactosidase (Q8VNN2 whole entry): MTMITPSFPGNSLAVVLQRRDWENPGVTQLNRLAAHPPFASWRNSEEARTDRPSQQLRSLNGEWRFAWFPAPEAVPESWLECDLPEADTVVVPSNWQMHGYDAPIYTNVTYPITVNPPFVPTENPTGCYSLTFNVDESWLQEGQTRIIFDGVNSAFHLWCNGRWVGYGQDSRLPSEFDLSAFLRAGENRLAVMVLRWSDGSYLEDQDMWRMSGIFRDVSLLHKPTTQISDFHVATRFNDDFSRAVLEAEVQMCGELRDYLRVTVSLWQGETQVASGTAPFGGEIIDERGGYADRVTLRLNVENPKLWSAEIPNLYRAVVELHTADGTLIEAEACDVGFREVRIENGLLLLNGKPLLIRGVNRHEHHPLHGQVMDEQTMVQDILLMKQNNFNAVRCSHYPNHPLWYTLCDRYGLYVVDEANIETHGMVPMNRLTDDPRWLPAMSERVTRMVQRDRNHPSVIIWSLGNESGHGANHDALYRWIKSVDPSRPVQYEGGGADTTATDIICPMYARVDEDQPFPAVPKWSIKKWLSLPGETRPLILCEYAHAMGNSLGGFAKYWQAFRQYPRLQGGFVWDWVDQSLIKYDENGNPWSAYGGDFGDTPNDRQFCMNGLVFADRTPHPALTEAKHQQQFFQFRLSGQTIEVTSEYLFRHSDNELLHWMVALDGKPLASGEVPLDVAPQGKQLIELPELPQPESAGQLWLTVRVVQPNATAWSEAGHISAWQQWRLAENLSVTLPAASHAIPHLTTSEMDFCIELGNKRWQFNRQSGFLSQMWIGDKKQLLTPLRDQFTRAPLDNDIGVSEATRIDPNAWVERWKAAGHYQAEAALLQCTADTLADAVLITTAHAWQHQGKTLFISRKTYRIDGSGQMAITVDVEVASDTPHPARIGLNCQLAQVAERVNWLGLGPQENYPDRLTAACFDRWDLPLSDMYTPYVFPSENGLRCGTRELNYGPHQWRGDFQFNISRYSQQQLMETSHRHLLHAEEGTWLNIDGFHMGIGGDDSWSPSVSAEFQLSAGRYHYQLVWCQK

[6] = cytotoxicity in MIN6 insulinoma cells, dose response, cytotoxicity control, cell-based, mouse insulinoma (AID 2122); format: functional;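 further: confirmatory high-throughput counterscreen run to flag cytotoxic compounds; mouse MIN-6 beta cells carrying an insulin promoter eGFP reporter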

SMILES: O=C1C(=O)c2ccccc2-c2ccccc21 [9,10-PHENANTHRENEQUINONE]
- CC50 [1]: 2.33 µM (active)
- IC50 [2]: 2.03 µM (active)
- IC50 [3]: 5.02 µM (active)
- IC50 [4]: 6.44 µM (active)
- IC50 (Phospholipase A2): 42.8 µM (inactive)

SMILES: O=C1c2cc(F)ccc2-n2c1nc1ccccc1c2=O
- EC50 [5]: > 120 µM (not active)

SMILES: CCC(=O)OCCNc1cc(Sc2nccn2C)c2nonc2c1[N+](=O)[O-]
- EC50 (Beta-galactosidase): > 31.5 µM (inactive)

SMILES: O=C1C=C(N(CCO)Cc2ccccc2)c2ccccc2C1=O
- IC50 [6]: 3.71 µM (active)
